Consider 1 molecule from patent publication US20030130177A1, “Use of amylin agonists to modulate triglycerides” (priority 2002, published 2003).

Each structure is given as a SMILES string.

Experiment [1] concerns patients with type-1 diabetes. As to the kind of experiment: Standardized mixed meal test after 4 weeks pramlintide TID added to CSII (Example 1). The experiment is classed as in vivo, human. The text has this: This Study Assesses the Effect of the Amylin Agonist Pramlintide on Post-Prandial Plasma Glucose and Triglyceride Excursions in Patients with Type-1 Diabetes Intensively Treated with Continuous Subcutaneous Insulin Infusion (CSII).
All 23 patients in this study are ≧16 years of age, have type-I diabetes for ≧1 year and have been intensively treated (CSII, basal/bolus regimen) for at least 6 months. Patients are using either lispro (n=21) or regular (n=2) insulin, have not changed their daily insulin dose by more than ±10% for 2 months prior to the study, and have been free from severe hypo- and hyperglycemic symptoms for at least 4 weeks prior to the study. Exclusion criteria include a clinically significant history or presence of heart disease, uncontrolled hypertension (blood pressure ≧160/90 mm Hg), gastrointestinal, hepatic, renal, or central nervous system disorders, acute illness, a history of drug or alcohol abuse, or treatment with drugs known to affect gastrointestinal motility or glucose metabolism.
The study consists of 3 time periods (baseline, 4 weeks on-therapy, 2 weeks off-therapy). At the end of each time period (weeks 0, 4, 6), patients are evaluated at the clinical research center (CRC). Each evaluation includes a standardized meal test.
The first evaluation (baseline) is conducted when patients are solely treated with their usual CSII regimen. After the baseline evaluation, patients are randomized to self-administer either placebo (n=6) or pramlintide (n=17) TID with major meals, in addition to their existing CSII therapy, for 4 weeks. The placebo group is included to provide data that could be used to determine adequate power analyses when planning future studies and not for the purpose of placebo comparisons. […]
On each of the 3 CRC visits, patients undergo a standardized mixed meal test the morning after an overnight fast. […] Blood samples are processed in accordance with standard clinical practice using a reference lab and commercially available products (e.g., quantitative enzymatic in vitro assay for Triglycerides GPO-PAP, Roche Diagnostics). […]

Experiment [2] concerns patients with type-1 diabetes. To be noted: mealtime s.c. injections in addition to mealtime insulin, cited from earlier work.
The test system of experiment [3] is subjects with type 2 diabetes using insulin. As to the kind of experiment: Single-dose crossover study of pramlintide injection timing relative to a standardized breakfast, type 2 diabetes using insulin (Example 2). As to conditions: type 2 patients treated with lispro insulin, pramlintide 120 μg SC, -15 to +30 min relative to meal. The experiment is classed as in vivo, human. An excerpt:
(§1) In this example, a randomized, single-blind, placebo-controlled, five-way crossover study is designed to examine the effect of the timing of pramlintide injection relative to meal ingestion on postprandial plasma glucose profiles and triglycerides in subjects with type 1 diabetes and subjects with type 2 diabetes using insulin. Three study groups are defined by diabetes type and mealtime insulin used in their treatment regimen. On 5 study days, subjects receive a single dose of one of five treatments (A, B, C, D, or E) in random order:
(§2) Each treatment (pramlintide or placebo) is administered subcutaneously (SC) within specified times relative to a standardized breakfast after an overnight fast. Subjects are randomly assigned to one of four treatment sequences according to a randomization schedule generated for each study group.
Subjects with type 1 diabetes received pramlintide 60 μg or placebo (equivalent volume). Subjects with type 2 diabetes using insulin receive pramlintide 120 μg or placebo (equivalent volume). Subjects maintain their usual insulin regimen during the study; if necessary, insulin dose adjustments are made in consultation with study personnel to facilitate achievement of fasting fingerstick glucose values in the range of ≧80 mg/dL and ≦250 mg/dL while avoiding hypoglycemia. […]

Experiment [4] concerns subjects with type 1 diabetes. As to the kind of experiment: Single-dose crossover study of pramlintide injection timing relative to a standardized breakfast, type 1 diabetes (Example 2). The experiment is classed as in vivo, human. To be noted: pramlintide 60 μg SC, -15 to +30 min relative to meal.
Text: as §1, §2
Subjects with type 1 diabetes received pramlintide 60 μg or placebo (equivalent volume). Subjects with type 2 diabetes using insulin receive pramlintide 120 μg or placebo (equivalent volume). Subjects maintain their usual insulin regimen during the study; if necessary, insulin dose adjustments are made in consultation with study personnel to facilitate achievement of fasting fingerstick glucose values in the range of ≧80 mg/dL and ≦250 mg/dL while avoiding hypoglycemia. The timing of the short-acting insulin dose relative to the standardized breakfast is based on recommendations in the respective package inserts for the insulin (0 min for insulin lispro and −30 min for regular insulin).
The study population consists of three study groups, defined by diabetes type and type of mealtime insulin used in their treatment regimen. Study Group 1: Subjects with type 1 diabetes using insulin lispro. Study Group 2: Subjects with type 1 diabetes using regular insulin. Study Group 3: Subjects with type 2 diabetes using insulin lispro. Fifty-nine subjects (21 type 1 subjects using insulin lispro; 19 type 1 subjects using regular insulin; and 19 type 2 subjects using insulin lispro) are enrolled in this study.

Take `CC[C@H](C)[C@H](NC(=O)[C@@H]1CCCN1C(=O)CNC(=O)[C@H](Cc1ccccc1)NC(=O)[C@H](CC(N)=O)NC(=O)[C@H](CC(N)=O)NC(=O)[C@H](CO)NC(=O)[C@H](CO)NC(=O)[C@H](Cc1c[nH]cn1)NC(=O)[C@@H](NC(=O)[C@H](CC(C)C)NC(=O)[C@H](Cc1ccccc1)NC(=O)[C@H](CC(N)=O)NC(=O)[C@H](C)NC(=O)[C@H](CC(C)C)NC(=O)[C@H](CCCNC(=N)N)NC(=O)[C@H](CCC(N)=O)NC(=O)[C@@H](NC(=O)[C@H](C)NC(=O)[C@@H]1CSSC[C@H](NC(=O)[C@@H](N)CCCCN)C(=O)N[C@@H](CC(N)=O)C(=O)N[C@@H]([C@@H](C)O)C(=O)N[C@@H](C)C(=O)N[C@@H]([C@@H](C)O)C(=O)N1)[C@@H](C)O)C(C)C)C(=O)N[C@@H](CC(C)C)C(=O)N1CCC[C@H]1C(=O)N1CCC[C@H]1C(=O)N[C@H](C(=O)N[C@@H](CC(N)=O)C(=O)N[C@H](C(=O)NCC(=O)N[C@@H](CO)C(=O)N[C@@H](CC(N)=O)C(=O)N[C@H](C(=O)N[C@@H](Cc1ccc(O)cc1)C(N)=O)[C@@H](C)O)C(C)C)[C@@H](C)O` [pramlintide, ^25, 28, 29Pro-h-amylin]: the “post-prandial triglyceride excursions, mean incremental AUC” value in experiment [1] (end of 4-week pramlintide treatment period, s.c. 15 min prior to meal, plus CSII, baseline period 65.7±87.6, p<0.05) stood at 16.7 ± 56.8 mg·min/dL; in experiment [1] (week 6, 2 weeks after return to pre-treatment therapy (CSII only), off-therapy) it was 56.2 ± 87.3 mg·min/dL. In experiment [1] (pramlintide added to insulin, type-1 diabetic patients), the “post-prandial glucose response to a mixed meal” value is “reduces”. Also, the “rate of gastric emptying” value in experiment [2] (Kong et al. 1998) is on record as “slows”. The mealtime glucagon secretion result in experiment [2] (Nyholm et al. 1999, Fineman et al. 2002) is given as “suppresses”. Further, the post-prandial glucose excursions entry in experiment [2] (Nyholm et al. 1999, Thompson et al. 1997) was “improves”. The postprandial glucose excursions entry in experiment [3], in experiment [4] (type 1 patients treated with lispro insulin) and in experiment [4] (type 1 patients treated with regular insulin) was “markedly improves” in each case. Also, the postprandial triglyceride concentrations result in experiment [3] (FIG. 4) was “markedly improves”; in experiment [4] (type 1 patients treated with lispro insulin, FIG. 2) it was “markedly improves”; in experiment [4] (type 1 patients treated with regular insulin, FIG. 3) it was “markedly improves”.
